# Results published in US8222240B2, “Use of substituted cyclopropane acid derivatives for producing drugs for use in the treatment of metabolic syndrome” (Sanofi-Aventis Deutschland GmbH, priority 2004, dated 2012).
# Assays:
# [1] = target: T1, GPCR HM74A (niacin receptor) (Homo sapiens, UniProt Q8TDS4); test: FLIPR in vitro functional assay, intracellular Ca2+ in recombinant HEK293 cells expressing HM74A and hybrid G-protein; format: cell-based; settings: relative to 1 μM niacin = 100%
# T1 construct: expressed in transfected cells; host or cells: HEK293
# Procedure: in vitro functional assays with recombinant cells; function-testing assays were carried out by means of the FLIPR technique (“Fluorescence Imaging Plate Reader”, Molecular Devices Corp.).
# For the investigations, cells were seeded into 96-well microtiter plates (60 000 cells/well) and allowed to grow over night. The medium was removed and the cells were incubated in buffer which contained the fluorescent dye Fluo-4. After this loading with dye, the cells were washed, test substance was added, and changes in the intracellular Ca^2+ concentration were measured in the FLIPR apparatus.
# lipolysis = test: Inhibition of lipolysis on the whole animal (plasma FFA, glycerol, triglycerides after p.o. administration); format: in vivo, Wistar rats; design: FFA / Glycerol / Triglyceride: unit not given here; settings: for FFA / Glycerol / Triglyceride: 3 mg/kg po, Wistar rats
# Procedure: The effect was tested on the whole animal (mouse, rat, hamster or dog), after a fasting period (e.g. of about 16 hours the substance is administered (e.g. p.o., iv., i.p., s.c.) and, with or without additional stimulation of endogenous lipolysis (e.g. by a bolus injection of 2 mg/kg i.p. isoprenaline), the effect of the test substance on lipolysis was determined on the basis of the liberated free fatty acids (FFA), glycerol and triglycerides by obtaining a blood sample (e.g. by retroorbital blood sampling) e.g. 15 min, 30, 60, 120 etc minutes after p.o. administration, and analyzing by standard methods of clinical chemistry (e.g. L. Thomas: Labor und Diagnose, 2nd edition, Medizinische Verlagsgesellschaft, Marburg/L. 1984; ISBN 3-921320-10-9)). The inhibition of lipolysis by the inhibitors is analyzed by comparing with the rate of lipolysis in correspondingly treated control animals.
# T1 sequence (Q8TDS4 whole entry): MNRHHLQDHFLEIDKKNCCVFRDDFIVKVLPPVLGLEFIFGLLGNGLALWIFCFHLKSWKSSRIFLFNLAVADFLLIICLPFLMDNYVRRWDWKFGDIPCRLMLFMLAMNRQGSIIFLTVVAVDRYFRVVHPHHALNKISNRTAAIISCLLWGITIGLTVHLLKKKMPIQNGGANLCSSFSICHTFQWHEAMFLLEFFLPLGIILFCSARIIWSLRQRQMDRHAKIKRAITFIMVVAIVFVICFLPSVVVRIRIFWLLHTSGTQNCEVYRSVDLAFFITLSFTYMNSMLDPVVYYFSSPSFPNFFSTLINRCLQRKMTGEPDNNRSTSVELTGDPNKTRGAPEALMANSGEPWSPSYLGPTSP
SMILES,EC50 [1],other results
"CC(C)COC(=O)[C@@H]1C[C@H]1C(=O)O (racemic) [Example 16, 1RS-isobutoxycarbonyl-2RS-hydroxycarbonyl-cyclopropane]",> 30000 nM,
"CC(C)OC(=O)[C@@H]1C[C@H]1C(=O)O (racemic) [Example 14, 1RS-iso-Propoxycarbonyl-2RS-hydroxycarbonyl-cyclopropane]",> 30000 nM,
"COC(=O)[C@H]1C[C@@H]1C(=O)OC (relative stereo) [Example 5, Dimethyl trans-1,2-cyclopropanedicarboxylate]",> 30000 nM,"FFA (lipolysis; Time 0): 0.47; Glycerol (lipolysis; Time 0): 87; Triglyceride (lipolysis; Time 0): 0.45; FFA (lipolysis; Time 15): 0.17; Glycerol (lipolysis; Time 15): 39; Triglyceride (lipolysis; Time 15): 0.45; FFA (lipolysis; Time 30): 0.13; Glycerol (lipolysis; Time 30): 33; Triglyceride (lipolysis; Time 30): 0.26; FFA (lipolysis; Time 60): 0.11; Glycerol (lipolysis; Time 60): 28; Triglyceride (lipolysis; Time 60): 0.15; FFA (lipolysis; Time 120): 0.25; Glycerol (lipolysis; Time 120): 57; Triglyceride (lipolysis; Time 120): 0.13; lipolysis (reduction in free fatty acids (FFA), glycerol and triglycerides) (lipolysis; doses of from 0.3 to 30 mg/kg po): distinctly reduced"
"CCCCOC(=O)[C@@H]1C[C@H]1C(=O)O (racemic) [Example 12, 1RS-Butoxycarbonyl-2RS-hydroxycarbonyl-cyclopropane]",670 nM,
"CCOC(=O)[C@@H]1C[C@H]1C(=O)O (racemic) [Example 10, 1RS-Ethoxycarbonyl-2RS-hydroxycarbonyl-cyclopropane]",1480 nM,
"COC(=O)[C@H]1C[C@H]1C(=O)OC [Example 4, Dimethyl cis-1,2-cyclopropanedicarboxylate]",> 30000 nM,
"CCCOC(=O)[C@@H]1C[C@H]1C(=O)O (racemic) [Example 11, 1RS-Propoxycarbonyl-2RS-hydroxycarbonyl-cyclopropane]",2160 nM,
"COC(=O)[C@H]1C[C@]1(C)C(=O)OC (relative stereo) [Example 6, Dimethyl 1-methyl-trans-cyclopropane-1,2-dicarboxylate]",> 30000 nM,
"COC(=O)[C@@H]1C[C@H]1C(=O)O [Example 1, 1R-Methoxycarbonyl-2R-hydroxycarbonyl-cyclopropane]",70 nM,
"CC(C)(C)OC(=O)[C@H]1[C@H](C(=O)O)C1(C)C (racemic) [Example 20, 1RS-tertButoxycarbonyl-2RS-hydroxycarbonyl-3,3-dimethyl-cyclopropane]",> 30000 nM,
"CCOC(=O)[C@@H]1C[C@H]1C(=O)OCC (relative stereo) [Example 8, Diethyl trans-1,2-cyclopropanedicarboxylate]",> 30000 nM,
"C#CCOC(=O)[C@@H]1C[C@H]1C(=O)O (racemic) [Example 18, 1RS-Propargyloxycarbonyl-2RS-hydroxycarbonyl-cyclopropane]",1510 nM,
"CC#CCOC(=O)[C@@H]1C[C@H]1C(=O)O (racemic) [Example 19, 1RS-Butinyloxycarbonyl-2RS-hydroxycarbonyl-cyclopropane]",1630 nM,
"COC(=O)[C@@H]1C[C@H]1C(=O)O [Example 3, 1R-Methoxycarbonyl-2R-hydroxycarbonyl-cyclopropane]",190 nM,
"O=C(O)[C@@H]1C[C@H]1C(=O)OCC1CCCCC1 (racemic) [Example 15, 1RS-Cyclohexyl-methyloxycarbonyl-2RS-hydroxycarbonyl-cyclopropane]",> 30000 nM,
"C=CCOC(=O)[C@@H]1C[C@H]1C(=O)O (racemic) [Example 17, 1RS-allyloxycarbonyl-2RS-hydroxycarbonyl-cyclopropane]",2830 nM,
"CCCCCOC(=O)[C@@H]1C[C@H]1C(=O)O (racemic) [Example 13, 1RS-Pentoxycarbonyl-2RS-hydroxycarbonyl-cyclopropane]",1610 nM,
"COC(=O)[C@@H]1C[C@H]1C(=O)O [Example 2, 1R-Methoxycarbonyl-2R-hydroxycarbonyl-cyclopropane]",130 nM,
"COC(=O)[C@@H]1C[C@H]1C(=O)O (racemic) [Example 7, 1RS-Methoxycarbonyl-2RS-hydroxycarbonyl-cyclopropane]",630 nM,
"COC(=O)[C@H]1[C@H](C(=O)O)C1(C)C (racemic) [Example 9, 1RS-Methoxycarbonyl-2RS-hydroxycarbonyl-3,3-dimethyl-cyclopropane]",> 30000 nM,
